Article PMC8029583 (ACS chemical biology, 2020)
Where a SMILES comes first, the peptide text is derived from it.

Experiments:
ComR receptor [1] = target: T1, ComR receptor (Streptococcus mutans serotype c, UniProt Q8DWI6); assay: β-galactosidase reporter activation; format: cell-based
ComR receptor [2] = target: T1, ComR receptor; assay: β-galactosidase reporter inhibition; format: cell-based; conditions: SMCOM2 in CDM; primary antagonism screening (Figure S-3)

CC(C)C[C@H](NC(=O)[C@H](C)NC(=O)[C@H](Cc1c[nH]c2ccccc12)NC(=O)[C@H](Cc1c[nH]c2ccccc12)NC(=O)[C@H](C)NC(=O)[C@H](CC(C)C)NC(=O)[C@H](C)N)C(=O)O [XIP-G1AD3AS6A (P30), ALAWWAL] (H-ALAWWAL-OH)
comX activation (partial agonist) (ComR receptor [1]; SMCOM2 in CDM, from dose response curve): ~ 30%

CC(C)C[C@H](NC(=O)CN)C(=O)N[C@@H](CC(=O)O)C(=O)N[C@@H](Cc1c[nH]c2ccccc12)C(=O)N[C@@H](Cc1c[nH]c2ccccc12)C(=O)N[C@@H](CO)C(=O)N[C@@H](C)C(=O)O [XIP-L7A (P8), GLDWWSA] (H-GLDWWSA-OH)
inhibition of ComR activation (ComR receptor [2]): ~ 80%

CC(C)C[C@H](NC(=O)[C@H](CO)NC(=O)[C@H](Cc1c[nH]c2ccccc12)NC(=O)[C@H](C)NC(=O)[C@H](CC(=O)O)NC(=O)[C@H](CC(C)C)NC(=O)CN)C(=O)O [XIP-W4A (P5), GLDAWSL] (H-GLDAWSL-OH)
inhibition of ComR activation (ComR receptor [2]): ~ 90%

GLD [XIP-Des-W4W5S6L7 (P43)]
activity / agonism against ComR (in words) (ComR receptor [1]; SMCOM2 reporter in CDM): inactive

GLdWWSL [XIP-d3 (P10)]
activation (ComR receptor [1]; SMCOM2 in CDM, at 100 μM concentration): ~ 45%
